Literature values in patent US8637672B2 (Deciphera Pharmaceuticals, LLC, priority 2010, dated 2014).

Biological target: VEGFR-2 (KDR kinase) (Homo sapiens, UniProt P35968, DEL940-989/E990V)
Details: values published in the '188/'556 applications; cited from earlier work

VEGFR-2 (KDR kinase), sequence (P35968 with tags, fused parts or gaps DEL940-989/E990V): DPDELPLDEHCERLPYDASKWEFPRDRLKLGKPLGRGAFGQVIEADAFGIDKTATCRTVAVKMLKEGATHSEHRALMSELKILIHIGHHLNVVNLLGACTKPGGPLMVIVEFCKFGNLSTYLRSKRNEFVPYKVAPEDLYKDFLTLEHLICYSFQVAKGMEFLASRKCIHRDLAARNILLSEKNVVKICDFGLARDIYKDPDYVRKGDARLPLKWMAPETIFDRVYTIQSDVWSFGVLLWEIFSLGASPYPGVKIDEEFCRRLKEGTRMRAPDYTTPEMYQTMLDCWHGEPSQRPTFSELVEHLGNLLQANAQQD

Question: Which IC50 does the source give for `CN1CCN(C2CCN(C(=O)Nc3cc(Oc4ccc(NC(=O)C5(C(=O)Nc6ccc(F)cc6)CC5)c(F)c4)ccn3)CC2)CC1` [Compound F] here?
Answer: The IC50 was 240 nM.
